# Results as given in paper PMC12386606, “Evaluation of the In Vitro Blood–Brain Barrier Transport of Ferula persica L. Bioactive Compounds” (International Journal of Molecular Sciences, 2025).
# Read-outs that look alike come from different tables or passages of the source.
# Experiments:
# [1] = Parallel artificial membrane permeability assay for the blood–brain barrier (PAMPA-BBB); conditions: for AerExt Cross BBB Potential: compound within AerExt; for AerExt Cross BBB Potential / RootExt Cross BBB Potential: PAMPA-BBB; for RootExt log Pe: compound within RootExt donor solution; for RootExt log Pe / AerExt log Pe: 37 °C, 4 h, PBS pH 7.4, n.q. = not quantified in the acceptor plate; for AerExt log Pe: compound within AerExt donor solution; for Papp at 4 h: PAMPA, pH 7.4; for RootExt Cross BBB Potential: compound within RootExt
# Procedure: The permeability of bioactive compounds from AerExt and RootExt across the BBB was assessed using the PAMPA-BBB assay, following the methodology described by [11]. Firstly, the BBB solution was prepared by dissolving 8 mg of PBL and 4 mg of cholesterol in 600 μL of n-dodecane. The initial donor solution was prepared by mixing 1 mL of AerExt or RootExt (at 10 mg mL^−1 in EtOH) with 1 mL of buffer (PBS, pH = 7.4, 10 mM). The filter membrane of the donor plate was coated with 5 μL of BBB solution. The acceptor plate was filled with 350 μL of buffer, and the donor plate was carefully placed on top of the acceptor plate to form a “sandwich-like” assembly. Subsequently, 350 μL of the donor solution was added to the donor plate, which was then covered and incubated at 37 °C for 4 h in the dark. After the incubation time, 300 μL of the solution was collected from each plate, transferred into separate vials, and evaporated using a SpeedVac system at 40 °C under 13 mbar pressure. The dried acceptor and donor solutions were dissolved in 50 μL of pure EtOH before being subjected to HPLC-Q-TOF-MS/MS and GC-Q-TOF-MS analysis. Permeability (Pe) across the PAMPA-BBB of the bioactive compound was calculated according to Equation (1) [54], with modifications in concentration rates.Pe = −ln[1 − CA(t)/Cequilibrium]/(A × (1/VD + 1/VA) × t)(1)
# Cequilibrium was calculated according to Equation (2):Cequilibrium = [CD(t) × VD + CA(t) × VA]/(VD + VA)(2)
# The HPLC-MS and GC-MS chromatograms were processed using the Agilent Mass Hunter Qualitative software (version B.10.0) to verify the retention time and exact mass of the compounds previously reported by us [25] and to extract their peak area to calculate the BBB permeability.
# HBMEC cells = assay: Blood–brain barrier transport study in HBMEC Transwell monolayer; conditions: for crossing of the HBMEC-BBB: AerExt 40 µg mL^−1 / RootExt 20 µg mL^−1, 2, 4, 24 h; for AerExt Te (%) ± SD 2 h / AerExt Te (%) ± SD 4 h / AerExt Te (%) ± SD 24 h: AerExt 40 µg mL^−1 apical; for AerExt Te (%) ± SD 2 h / AerExt Te (%) ± SD 4 h / RootExt Te (%) ± SD 2 h / RootExt Te (%) ± SD 4 h / RootExt Te (%) ± SD 24 h / AerExt Te (%) ± SD 24 h: n.q. = not quantified in the basolateral compartment; for RootExt Te (%) ± SD 2 h / RootExt Te (%) ± SD 4 h / RootExt Te (%) ± SD 24 h: RootExt 20 µg mL^−1 apical
# Procedure: After the toxicity evaluation, the HBMEC cell line was also used as a simplified in vitro model of the BBB endothelium. Cells were seeded at a density of 1.6 × 10^5 cells/cm^2 in 12-well Transwell® plates (Corning Costar Corp., Corning, USA) with a pore diameter of 0.4 μm, pre-coated with type I rat tail collagen (100 μg mL^−1) [55]. The culture medium was renewed every 2 days until a monolayer cell structure was formed (see Supplementary Figure S2), and transport experiments were initiated after 10 days. In transport experiments, the medium in the apical (upper) compartment of the Transwell system was removed, and 0.5 mL of AerExt or RootExt at a concentration of 40 μg mL^−1 and 20 μg mL^−1, respectively, was added to these compartments (applied in duplicate). Also, a medium containing 0.4% (v/v) ethanol was used as control group. The basolateral (lower) compartments were filled with 1.5 mL of fresh culture medium. The cells were incubated under these conditions for 2, 4, and 24 h.
# At the end of the incubation periods, media samples were collected from both chambers and lyophilized using a freeze-drying system from Martin Christ (Osterode am Harz, Germany). The samples were stored at −80 °C until analysis. The collected samples were subjected to chemical analyses to evaluate the ability of bioactive compounds contained in the extracts to pass through the cell monolayer.
# The transport efficiency (Te) of bioactive substances was calculated based on Equation (3), described by [56]:Te (%) = CLower/CUpper × 100(3)
# This calculation was performed to understand whether the compound crosses the cell layer and how efficiently it is transported.
# For this purpose, 0.2 mL of cold water (H2O) was added to the samples, and the samples were vortexed for 10 s. Then, 0.8 mL of cold methanol was added and vortexed again for 10 s. Then, the mixture was centrifuged at 14,000 rpm for 5 min, and the supernatant was carefully transferred to a 1.5 mL Eppendorf tube and dried in a SpeedVac device at 40 °C and 13 bar pressure. Finally, the dried samples were resuspended in 25 μL of pure ethanol for their subsequent analysis.
# For HPLC-Q-TOF MS/MS analysis, aliquots of 2 μL were injected into an HPLC model 1290 coupled to a Q-TOF series 6540 (Agilent Technologies, Waldbronn, Germany). For GC-Q-TOF MS analysis, aliquots of 1 μL were injected with a split ratio of 1:10 into a GC model 7890B coupled to a Q-TOF series 7200 (Agilent Technologies, Waldbronn, Germany). The HPLC-MS and GC-MS chromatograms were processed using the Agilent Mass Hunter Qualitative software (version B.10.0) to verify the retention time and exact mass of the compounds previously reported by us [25] and to extract their peak area to calculate the BBB permeability.
# [2] = oil/water partition coefficient, ref PubChem, cited from earlier work
molecule,measurement,setting,value
O=c1cc(-c2ccc(O)cc2)oc2cc(O[C@@H]3O[C@H](CO)[C@@H](O)[C@H](O)[C@H]3O)cc(O)c12 [Apigenin 7-glucoside],AerExt Cross BBB Potential,[1],+ (log Pe < −6.5)
same,RootExt log Pe,[1],n.q.
same,crossing of the HBMEC-BBB,HBMEC cells,could not cross the HBMEC-BBB
same,AerExt Te (%) ± SD 2 h,HBMEC cells,n.q.
same,AerExt Te (%) ± SD 4 h,HBMEC cells,n.q.
same,log p,[2]; Table 1,−0.1
"O=C(O)C=Cc1cc(O)ccc1O [2,5-dihydroxycinnamic acid]",AerExt log Pe,[1],−5.68
same,RootExt log Pe,[1],−5.22
same,crossing of the HBMEC-BBB,HBMEC cells,could not cross the HBMEC-BBB
same,RootExt Te (%) ± SD 2 h,HBMEC cells,n.q.
same,RootExt Te (%) ± SD 4 h,HBMEC cells,n.q.
same,RootExt Te (%) ± SD 24 h,HBMEC cells,n.q.
same,log p,[2]; Table 1,1.2
COc1ccc(-c2cc(=O)c3c(OC)c(OC)c(OC)c(OC)c3o2)cc1OC [Nobiletin],Papp at 4 h,[1],49 ×10⁻⁶ cm/s
same,crossing of the HBMEC-BBB,HBMEC cells,could not cross the HBMEC-BBB
same,AerExt Te (%) ± SD 2 h,HBMEC cells,n.q.
same,AerExt Te (%) ± SD 4 h,HBMEC cells,n.q.
same,AerExt Te (%) ± SD 24 h,HBMEC cells,n.q.
same,RootExt Te (%) ± SD 2 h,HBMEC cells,n.q.
same,RootExt Te (%) ± SD 4 h,HBMEC cells,n.q.
same,RootExt Te (%) ± SD 24 h,HBMEC cells,n.q.
same,log p,[2]; Table 1,3.0
COc1cc([C@@H]2OC[C@@H]3[C@H]2CO[C@H]3c2cc(OC)c(O[C@@H]3O[C@H](CO)[C@@H](O)[C@H](O)[C@H]3O)c(OC)c2)cc(OC)c1O[C@@H]1O[C@H](CO)[C@@H](O)[C@H](O)[C@H]1O [Syringaresinol diglucoside],AerExt log Pe,[1],n.q.
same,RootExt log Pe,[1],n.q.
same,AerExt Te (%) ± SD 2 h,HBMEC cells,n.q.
same,AerExt Te (%) ± SD 4 h,HBMEC cells,n.q.
same,AerExt Te (%) ± SD 24 h,HBMEC cells,n.q.
same,log p,[2]; Table 1,−1.4
CC(C)[C@@H]1CC[C@@]2(C)[C@H](O)CC[C@](C)(O)[C@H]2[C@@H]1O[C@@H]1O[C@H](CO)[C@@H](O)[C@H](O)[C@H]1O [Ophiopogonoside A],AerExt log Pe,[1],n.q.
same,RootExt log Pe,[1],n.q.
same,RootExt Te (%) ± SD 2 h,HBMEC cells,n.q.
same,RootExt Te (%) ± SD 4 h,HBMEC cells,n.q.
same,RootExt Te (%) ± SD 24 h,HBMEC cells,66.0 ± 3.2%
same,log p,[2]; Table 1,0.4
CC1CCCC2(C)CCC(C(C)(C)O)C=C12 (centres unmarked) [Rosifoliol],AerExt log Pe,[1],n.q.
same,RootExt log Pe,[1],n.q.
same,log p,[2]; Table 1,3.9
O=c1c(OC2OC(CO)C(O)C(O)C2O)c(-c2ccc(O)c(O)c2)oc2cc(O)cc(O)c12 (centres unmarked) [Isoquercetrin],AerExt log Pe,[1],n.q.
same,AerExt Cross BBB Potential,[1],–
same,RootExt log Pe,[1],n.q.
same,RootExt Cross BBB Potential,[1],–
same,log p,[2]; Table 1,−0.2
O=C(/C=C/c1ccc(O)c(O)c1)OC1C(O)CC2(O)CC1OC2=O (centres unmarked) [4-caffeoylquinic acid lactone],AerExt Cross BBB Potential,[1],+ (log Pe < −6.5)
same,log p,[2]; Table 1,0.4
COc1cc(/C=C/CO)cc(OC)c1O [trans-sinapyl alcohol],RootExt Cross BBB Potential,[1],+ (log Pe < −6.5)
same,log p,[2]; Table 1,1.3
"O=C(O)c1cccc(O)c1O [2,3-dihydroxybenzoic acid]",AerExt log Pe,[1],n.q.
same,AerExt Te (%) ± SD 2 h,HBMEC cells,17.5 ± 3.5%
same,AerExt Te (%) ± SD 4 h,HBMEC cells,9.6 ± 0.6%
same,AerExt Te (%) ± SD 24 h,HBMEC cells,14.0 ± 3.9%
same,RootExt Te (%) ± SD 2 h,HBMEC cells,21.4 ± 5.3%
same,RootExt Te (%) ± SD 4 h,HBMEC cells,23.9 ± 4.4%
same,RootExt Te (%) ± SD 24 h,HBMEC cells,214.1 ± 45.4%
same,log p,[2]; Table 1,1.2
same,log p,[2]; Table 2,1.5
"Oc1ccc(O)c(O)c1 [1,2,4-benzenetriol]",AerExt log Pe,[1],n.q.
same,crossing of the HBMEC-BBB,HBMEC cells,could not cross the HBMEC-BBB
same,RootExt Te (%) ± SD 2 h,HBMEC cells,n.q.
same,RootExt Te (%) ± SD 4 h,HBMEC cells,n.q.
same,RootExt Te (%) ± SD 24 h,HBMEC cells,n.q.
same,log p,[2]; Table 1,1.5
O=c1cc(-c2ccc(O)c(O)c2)oc2cc(O[C@@H]3O[C@H](CO)[C@@H](O)[C@H](O)[C@H]3O)cc(O)c12 [Luteolin 7-glucoside],AerExt Cross BBB Potential,[1],+ (log Pe < −6.5)
same,RootExt log Pe,[1],n.q.
same,log p,[2]; Table 1,0.5
COc1ccc(C=O)c(O)c1 [4-methoxysalicylaldehyde],AerExt log Pe,[1],n.q.
same,crossing of the HBMEC-BBB,HBMEC cells,could not cross the HBMEC-BBB
same,AerExt Te (%) ± SD 2 h,HBMEC cells,n.q.
same,AerExt Te (%) ± SD 4 h,HBMEC cells,n.q.
same,AerExt Te (%) ± SD 24 h,HBMEC cells,n.q.
same,RootExt Te (%) ± SD 2 h,HBMEC cells,n.q.
same,log p,[2]; Table 1,1.5
COc1ccc([C@@H]2CC(=O)c3c(O)cc(O[C@@H]4O[C@H](CO[C@@H]5O[C@@H](C)[C@H](O)[C@@H](O)[C@H]5O)[C@@H](O)[C@H](O)[C@H]4O)cc3O2)cc1O [Hesperidin],AerExt log Pe,[1],n.q.
same,RootExt log Pe,[1],n.q.
same,AerExt Te (%) ± SD 2 h,HBMEC cells,n.q.
same,AerExt Te (%) ± SD 4 h,HBMEC cells,n.q.
same,AerExt Te (%) ± SD 24 h,HBMEC cells,n.q.
same,RootExt Te (%) ± SD 2 h,HBMEC cells,n.q.
same,RootExt Te (%) ± SD 4 h,HBMEC cells,n.q.
same,RootExt Te (%) ± SD 24 h,HBMEC cells,n.q.
same,log p,[2]; Table 1,−1.1
O=C(O)[C@]1(O)C[C@@H](O)[C@@H](O)[C@H](O)C1 [Quinic acid],AerExt Cross BBB Potential,[1],+ (log Pe < −6.5)
same,log p,[2]; Table 1,−2.4
C[C@H]1CC[C@@H](C(C)(C)O)CC2=C1CC[C@@H]2C [Guaiol],AerExt log Pe,[1],n.q.
same,RootExt log Pe,[1],n.q.
same,log p,[2]; Table 1,3.1
CC(C)=CCC[C@](C)(O)[C@@H]1CC=C(C)CC1 [α-bisabolol],AerExt Cross BBB Potential,[1],+ (log Pe < −6.5)
same,RootExt Cross BBB Potential,[1],+ (log Pe < −6.5)
same,log p,[2]; Table 1,1.3
C/C=C\c1cc(OC)c(OC)cc1OC [β-asarone],RootExt log Pe,[1],n.q.
same,AerExt Te (%) ± SD 2 h,HBMEC cells,7.5 ± 2.0%
same,AerExt Te (%) ± SD 4 h,HBMEC cells,15.0 ± 7.3%
same,AerExt Te (%) ± SD 24 h,HBMEC cells,15.5 ± 1.0%
same,log p,[2]; Table 1,3.0
O=c1cc(-c2ccc(O)cc2)oc2cc(O)cc(O)c12 [Apigenin],Papp at 4 h,[1],97.7 ×10⁻⁶ cm/s
same,RootExt log Pe,[1],n.q.
same,AerExt Te (%) ± SD 2 h,HBMEC cells,4.2 ± 0.9%
same,AerExt Te (%) ± SD 4 h,HBMEC cells,5.1 ± 0.3%
same,AerExt Te (%) ± SD 24 h,HBMEC cells,309.7 ± 93.0%
same,log p,[2]; Table 1,1.7
Farnesyl acetate,AerExt log Pe,[1],−5.25
same,log p,[2]; Table 1,5.3
COc1ccc(-c2cc(=O)c3c(O)cc(O)cc3o2)cc1O [Diosmetin],Papp at 4 h,[1],148 ×10⁻⁶ cm/s
same,log p,[2]; Table 1,1.7
"CC1=CCC[C@]2(C)CCC(=C(C)C)C[C@@H]12 [Selina-3,7(11)-diene]",AerExt log Pe,[1],n.q.
same,RootExt log Pe,[1],n.q.
same,log p,[2]; Table 1,4.4
O=Cc1cccc(C(=O)O)c1O [3-formylsalicylic acid],RootExt log Pe,[1],−5.50
same,log p,[2]; Table 1,1.0
CC(C)=CCCC(C)(O)[C@H]1CC[C@]2(C)[C@@H]1[C@H](O)C[C@@H]1[C@@]3(C)CC[C@H](O)C(C)(C)[C@@H]3CC[C@]12C (stereo in doubt) [Protopanaxadiol],AerExt log Pe,[1],n.q.
same,RootExt log Pe,[1],n.q.
same,log p,[2]; Table 1,7.2
CC1=C2C[C@H](C(C)(C)O)CC[C@@]2(C)CCC1 [γ-eudesmol],AerExt Cross BBB Potential,[1],+ (log Pe < −6.5)
same,RootExt Cross BBB Potential,[1],+ (log Pe < −6.5)
same,log p,[2]; Table 1,3.7
CC(=O)OC[C@H]1O[C@@H](Oc2cc(O)c3c(=O)c(-c4ccc(O)cc4)coc3c2)[C@H](O)[C@@H](O)[C@@H]1O [6″-O-acetylgenistin],AerExt log Pe,[1],n.q.
same,log p,[2]; Table 1,0.9
CC1=CCC[C@@H](C)[C@]12CC[C@@H](C(C)(C)O)C2 [Agarospirol],AerExt log Pe,[1],n.q.
same,RootExt log Pe,[1],n.q.
same,log p,[2]; Table 1,3.7
"O=c1ccc2cc(O)c(O)cc2o1 [6,7-dihydroxycoumarin]",RootExt log Pe,[1],n.q.
same,RootExt Cross BBB Potential,[1],–
same,log p,[2]; Table 1,1.2
C=CC(C)(O)CC/C=C(\C)CCC=C(C)C (centres unmarked) [(E)-nerolidol],AerExt log Pe,[1],n.q.
same,RootExt log Pe,[1],n.q.
same,log p,[2]; Table 1,4.6
